From publication PMC12333940, “A prometabolite strategy inhibits cardiometabolic disease in an ApoE^–/– murine model of atherosclerosis” (JCI Insight, 2025)
Where “and” joins values, the source holds several entries; their conditions need not be identical. Equal entries are not always repeated.

How the values were obtained:
[1] = Biodistribution of free butyrate in intestinal tissue and contents, C57BL/6 mice; type: in vivo
Description: NaBut is limited in its translation by butyrate’s rapid consumption by colonocytes as a primary energy source in the distal gut. We propose that the enhanced biodistribution of free, active butyrate (following cleavage from serine) in SerBut-treated mice is due to small intestinal escape from the gut via amino acid transporters. To probe this hypothesis, we repeated the experiment and analyzed the biodistribution of free active butyrate in distinct sections of the intestinal tissue and the intestinal contents (Figure 2, K and L, and Supplemental Figure 2). Because neither ApoE^–/– nor HFD feeding would be expected to change amino acid receptor expression or function in the intestine, this was performed in C57BL/6 mice on a normal diet. […] We saw no increase in butyrate in the colon tissue (Figure 2P).
Samples were prepared and derivatized as described previously ([28]). […] The internal standard, 4-methylvaleric acid, was added.
Injection volume: 5.0 μL. Flow rate: 0.5 mL/min.

[2] = test system: ApoE^–/– mice on an HFD; assay: Flow cytometry of the aorta; type: in vivo, mouse; parameters: Aorta Flow CD11b+F480+ / Aorta Flow CD11b+Ly6Chi: unit not given here
Description: SerBut water was pH adjusted using 10 M NaOH to a final pH of 7.4. […] After 6 weeks, mice were euthanized. […] The liver was harvested and part was homogenized in tissue protein extraction reagent buffer (Invitrogen, 78510) supplemented with protease inhibitor mini tablets (Thermo Fisher Scientific, PIA32955) for Western blotting and qPCR. […] The heart with the ascending and descending aorta to the diaphragm was harvested. The perivascular adipose tissue was carefully removed by microdissection while keeping the adventitia intact. […] After 45 minutes of digestion at 37°C with orbital shaking, aortas were passed through a 70 μm cell strainer, rinsed, pelleted, and plated into a U-bottom 96-well microplate for staining. […] Cells were washed in PBS supplemented with 2% FBS (FACS buffer) and stained for 30 minutes on ice with surface antibodies at a 1:200 dilution in a 1:1 mixture of FACS buffer and Brilliant Stain Buffer (BD Biosciences). Cells were washed with FACS buffer and PBS and fixed with 2% paraformaldehyde on ice for 20 minutes. Cells were washed twice with PBS and resuspended in FACS buffer. Precision count beads (BioLegend) were used to determine absolute cell counts. In this study, antibodies used included those against CD16/CD32 (BioLegend, clone 93, catalog 101302), CCR2 (PE; […] BD Biosciences, clone HL3, catalog 558079, BD Biosciences), […] (APC; […] BD Biosciences, clone 30-F11, catalog 564225), F4/80 (BUV496; BD Biosciences, clone T45-2342, catalog 750644), […].5; BioLegend, clone M5/114.15.2, catalog 107626), Ly-6C (APC-Cy7; […]

[3] = test system: ApoE^–/– mice on an HFD; assay: Blood chemical analysis of plasma; type: in vivo, mouse; parameters: Lipase / ALT / Altherogenic Lipids (Chol-HDL) / HDL-C / LDL-C: unit not given here
Description: SerBut water was pH adjusted using 10 M NaOH to a final pH of 7.4. […] After 6 weeks, mice were euthanized. […] The liver was harvested and part was homogenized in tissue protein extraction reagent buffer (Invitrogen, 78510) supplemented with protease inhibitor mini tablets (Thermo Fisher Scientific, PIA32955) for Western blotting and qPCR. […] Blood chemical analysis was performed on an Alfa […] Chemistry Analyzer. Reagent kits from Alfa Wasserman were used according to manufacturer's instructions to analyze plasma: lipase (catalog SA1045), HDL-C (catalog SA2038, LDL-C (catalog SA1040), AST (catalog SA1053), ALT (catalog SA1052). A LEGENDPlex was utilized to analyze the concentrations of inflammatory cytokines (BioLegend).

[4] = test system: ApoE^–/– mice on an HFD; assay: CD68 immunohistochemistry and Stary plaque severity grading; type: in vivo, mouse; parameters: STARY Score Average: scale not given here
Description: For 6 weeks, mice were freely administered water, water containing 150 mM SerBut, or water containing an equimolar amount of NaBut. SerBut water was pH adjusted using 10 M NaOH to a final pH of 7.4. […] In concert, mice were fed an HFD with 42% from fat and 0.2% total cholesterol (Envigo, TD-88137) ad libitum. After 6 weeks, mice were euthanized. The lMLNs, ILNs, spleen, heart, and aorta were harvested and processed for flow cytometry analysis ([67]). The liver was harvested and part was homogenized in tissue protein extraction reagent buffer (Invitrogen, 78510) supplemented with protease inhibitor mini tablets (Thermo Fisher Scientific, PIA32955) for Western blotting and qPCR. The remaining liver was fixed with 4% paraformaldehyde and embedded in paraffin for histological analysis.
Frozen aortic root sections were fixed in Zamboni fixative for 10 minutes. After TBS wash, slides were loaded on Leica Bond RX automated stainer. Anti–mouse CD68 antibody (BioLegend, catalog 137001, clone FA-11; 1:4000) was applied to tissue sections for 60 minutes of incubation at room temperature. Following TBS wash, tissue sections were incubated with rabbit anti-rat IgG (Thermo Fisher Scientific, 31219) 30 minutes. The antigen-antibody binding was detected using Polymer-HRP (Leica Biosystems, Bond Polymer Refine Detection kit, DS9800). The slides were coverglassed by autocoverslipper (Tissue-Tek Glas g2). Stary plaque severity grading was done as previously described ([42]). Briefly, each individual mouse was scored if there were at least 2 sections showing all 3 leaflets of the aortic valve that could reasonably be scored. Each leaflet was scored individually per aortic valve and subsequently averaged per section. All sections were averaged per mouse for a final score. Sections were graded blinded. Table 1 explains the scoring scale. Quantitative analysis of plaque features was performed using a classifier in QuPath (v.05.0).

[5] = Blood Chemistry, 6wk, individual mice, experiments 1 and 2

SMILES: CCCC(=O)OC[C@H](N)C(=O)O [SerBut, O-butyryl-L-serine]
- free butyrate, Lower SI Contents ([1]; C57BL/6, normal chow, 3 hr after single gavage): 61.2227 µg/g and 52.7128 µg/g and 33.2508 µg/g and 35.0221 µg/g
- butyrate in the colon tissue ([1]; C57BL/6, normal diet): no increase
- free butyrate in the intestinal contents ([1]; C57BL/6, normal diet): no significant changes
- free butyrate in upper and lower small intestine and ileum tissue ([1]; compared with both PBS- and NaBut-treated mice): significantly more free, active butyrate
- CD11b^+Ly6C^hi monocytes and CD4^+ T cells in the aorta ([2]; 6 weeks, compared to water-treated controls): significantly reduced
- CD45^+ total leukocytes, CD11b^+ monocytes and CCR2^+CD11b^+ monocytes in the aorta ([2]; 6 weeks, compared with control groups): significantly reduced
- CD11c^+MHCII^hi dendritic cells, CD11b^+F480^+ macrophages and CD19^+ B cells in the aorta ([2]; 6 weeks, compared with water controls): significantly reduced
- Aorta Flow B cell Count ([2]; individual mice): 84.4967 and 264.868 and 232.342 and 96.7663 and 273.748 and 383.747 and 234.355 and 234.323 and 206.881
- Aorta Flow CD11b+F480+ ([2]; individual mice): 2.449 and 2.499 and 9.294 and 20.8231 and 9.359 and 5.0163 and 5.067 and 13.3899 and 12.3679
- Aorta Flow CD11b+Ly6Chi ([2]; individual mice): 17.5571 and 39.2703 and 12.2741 and 5.622 and 12.2459 and 19.99 and 12.7788 and 6.124 and 10.5288
- Aorta Flow T Cell Count ([2]; individual mice): 194.71 and 307.346 and 249.768 and 304.998 and 251.521 and 313.519 and 377.502 and 212.006 and 174.275
- Aorta Flow CD11b+ Count ([2]; individual mice, experiment 2): 156.172 and 152.184 and 222.93 and 139.214 and 215.701 and 328.097 and 166.257 and 155.161 and 99.1918
- Aorta Flow CD11b+CCR2+ ([2]; individual mice, experiment 2): 32.4838 and 20.9108 and 28.1725 and 25.737 and 41.3845 and 93.7421 and 32.3588 and 29.2332 and 22.0426
- Aorta Flow CD45 Count ([2]; individual mice, experiment 2): 1030.73 and 928.206 and 1219.99 and 1078.62 and 1098.57 and 1777.3 and 1018.75 and 756.69 and 848.641
- Aorta Flow CD11c+MHCIIhi ([2]; individual mice, cell count): 16.2419 and 24.3959 and 22.048 and 17.548 and 21.3193 and 22.8021 and 17.8532 and 22.4871 and 13.4705
- lipase in the plasma ([3]; 6 weeks): no effect
- total cholesterol or triglycerides in the plasma ([3]; 6 weeks): Neither SerBut nor NaBut influenced
- LDL-C as a fraction of total cholesterol ([3]; 6 weeks, 150 mM in drinking water, HFD): significantly reduced
- ratio of HDL to total cholesterol ([3]; 6 weeks, compared with NaBut treatment): significantly increased
- plasma ALT and AST ([3]; 6 weeks, compared with both water control and NaBut groups): significantly reduced
- Altherogenic Lipids (Chol-HDL) [3, 5]: 948 and 1048 and 1026 and 1018 and 1032 and 880 and 848 and 784 and 1074 and 722 and 776 and 780 and 800 and 768 and 1080 and 736 and 882
- HDL-C [3, 5]: 38 and 52 and 46 and 44 and 48 and 54 and 56 and 42
- LDL-C ([3]; Blood Chemistry, individual mice, experiments 1 and 2): 320 and 324 and 382 and 332 and 336 and 378 and 454 and 290 and 460 and 258 and 354 and 282 and 292 and 318 and 416 and 268 and 238
- ALT ([3]; plasma at 6 weeks, 150 mM in drinking water ad libitum with HFD, individual mice): 30.92 and 18.78 and 25.96 and 23.5 and 26.22 and 26.76 and 26.18 and 26.36 and 22.68
- plaque severity score, CD68^+ stained area and necrotic core area ([4]; 6 weeks, compared with water-treated mice): significant reduction
- STARY Score Average ([4]; average per mouse, experiments 1 and 2, grades per the 1st table): 4.31 and 4.429 and 3.833 and 3.944 and 4.333 and 4 and 3.75 and 3.583
- CD68+ IHC Quantification CD68 % Lesion ([4]; individual mice): 69.8799 % Lesion and 66.2246 % Lesion and 57.396 % Lesion and 61.0623 % Lesion and 37.3547 % Lesion and 58.9062 % Lesion and 54.5852 % Lesion
- CD68+ IHC Quantification CD68+ (um2) ([4]; individual mice): 83533.6 um2 and 151477 um2 and 57839.2 um2 and 114375 um2 and 26376.1 um2 and 132530 um2 and 122451 um2
- CD68+ IHC Quantification Intima % Lesion ([4]; individual mice): 20.6972 % Lesion and 12.9871 % Lesion and 31.9636 % Lesion and 8.967 % Lesion and 42.8946 % Lesion and 25.2201 % Lesion and 37.0252 % Lesion
- CD68+ IHC Quantification Intima (um2) ([4]; individual mice): 25307.3 um2 and 13303.3 um2 and 35976.1 um2 and 33683.8 um2 and 30916.8 um2 and 58237.6 um2 and 82003.5 um2
- CD68+ IHC Quantification Necrotic Core % Lesion ([4]; individual mice): 8.949 % Lesion and 20.1213 % Lesion and 8.471 % Lesion and 28.3702 % Lesion and 18.86 % Lesion and 14.738 % Lesion and 7.7245 % Lesion
- CD68+ IHC Quantification Necrotic Core (um2) ([4]; individual mice): 10697.9 um2 and 47552.4 um2 and 8399.84 um2 and 53169.3 um2 and 13317 um2 and 32727 um2 and 17678.5 um2
